Source: patent publication US20240124442A1, “TRICYCLIC-AMIDO-BICYCLIC PRMT5 INHIBITORS” (AMGEN INC., priority 2021, published 2024)

What was measured:
HCT116 WT cells = assay: HCT116 WT (parent) cell line proliferation / cell viability (CellTiter-Glo, 6 days); assay type: cell-based; settings: Homo sapiens, HCT-116, 144 h, 6 days treatment
Outline: (§1)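 Isogenic HCT116 pair (parental and MTAP-knockout) in RPMI 1640 + 10% FBS, treated 6 days with 8–9-point 1:3 dilutions from 1 or 10 μM top, or 22-point 1:2 dilutions from 10 or 50 μM top. Viability by CellTiter-Glo luminescence; IC50 from 4-parameter logistic fit or sigmoidal fit with Hill slope fixed at −1.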

HCT116 MTAP null cells = assay: HCT116 MTAP null cell line proliferation / cell viability (CellTiter-Glo, 6 days); assay type: cell-based; settings: 144 h; HCT116 MTAP null cells, 6 days treatment, CellTiter-Glo cell viability; read-out: HCT-116 MTAP null IC50
Outline: as §1

IC50 (HCT116 WT cells) [µM]	IC50 (HCT116 MTAP null cells) [nM]	SMILES
50	5320	CN(C(=O)c1ccc2nc(N)c3c(c2c1)COC3)[C@H]1COc2cc(S(C)(=O)=O)ccc21 (single isomer, unassigned) [Example 324]
4.16	68	CN(C(=O)c1ccc2nc(N)c3c(c2c1)COC3)[C@@H]1COc2cc(C(F)(F)F)cc(F)c21 (single isomer, unassigned) [Example 325]
20.6	1780	CN(C(=O)c1ccc2nc(N)c3c(c2c1)COC3)[C@H]1COc2cc(C(F)(F)F)cc(F)c21 (single isomer, unassigned) [Example 326]
0.457	11	CN(C(=O)c1ccc2nc(N)c3c(c2c1)COC3)[C@@H]1COc2cc(S(F)(F)(F)(F)F)ccc21 (single isomer, unassigned) [Example 327]
10.1	2160	CN(C(=O)c1ccc2nc(N)c3c(c2c1)COC3)[C@H]1COc2cc(S(F)(F)(F)(F)F)ccc21 (single isomer, unassigned) [Example 328]
1.82	46	CN(C(=O)c1ccc2nc(N)c3c(c2c1)COC3)[C@@H]1COc2cc(Br)ccc21 (single isomer, unassigned) [Example 329]
22.9	1610	CN(C(=O)c1ccc2nc(N)c3c(c2c1)COC3)[C@H]1COc2cc(Br)ccc21 (single isomer, unassigned) [Example 330]
2.24	26	C[C@H]1OCc2c1c(N)nc1ccc(C(=O)N(C)[C@@H]3COc4cc(Br)ccc43)cc21 (single isomer, unassigned) [Example 331]
22.3	920	C[C@H]1OCc2c1c(N)nc1ccc(C(=O)N(C)[C@H]3COc4cc(Br)ccc43)cc21 (single isomer, unassigned) [Example 332]
8.48	173	CN(C(=O)c1cc2c3c(c(N)nc2cn1)COC3)[C@@H]1COc2cc(Cl)ccc21 (single isomer, unassigned) [Example 333]
50	11900	CN(C(=O)c1cc2c3c(c(N)nc2cn1)COC3)[C@H]1COc2cc(Cl)ccc21 (single isomer, unassigned) [Example 334]
10.9	272	CN(C(=O)c1cc2c3c(c(N)nc2cn1)COC3)[C@@H]1COc2nc(C(F)(F)F)ccc21 (single isomer, unassigned) [Example 335]
50	11900	CN(C(=O)c1cc2c3c(c(N)nc2cn1)COC3)[C@H]1COc2nc(C(F)(F)F)ccc21 (single isomer, unassigned) [Example 336]
2.09	41	[2H]C([2H])([2H])N(C(=O)c1cc2c3c(c(N)nc2cn1)COC3)[C@@H]1COc2cc(C(F)(F)F)ccc21 (single isomer, unassigned) [Example 337]
37.5	4680	[2H]C([2H])([2H])N(C(=O)c1cc2c3c(c(N)nc2cn1)COC3)[C@H]1COc2cc(C(F)(F)F)ccc21 (single isomer, unassigned) [Example 338]
8.78	237	CN(C(=O)c1cc2c3c(c(N)nc2cn1)COC3)[C@@H]1COc2cc(S(C)(=O)=O)ccc21 (single isomer, unassigned) [Example 339]
50	7320	CN(C(=O)c1cc2c3c(c(N)nc2cn1)COC3)[C@H]1COc2cc(S(C)(=O)=O)ccc21 (single isomer, unassigned) [Example 340]
6.24	184	CN(C(=O)c1cc2c3c(c(N)nc2cn1)COC3)[C@@H]1CCc2cc(OC(F)(F)F)ccc21 (single isomer, unassigned) [Example 341]
28	4440	CN(C(=O)c1cc2c3c(c(N)nc2cn1)COC3)[C@H]1CCc2cc(OC(F)(F)F)ccc21 (single isomer, unassigned) [Example 342]
0.581	19	CN(C(=O)c1cc2c3c(c(N)nc2cn1)COC3)[C@@H]1COc2cc(S(F)(F)(F)(F)F)ccc21 (single isomer, unassigned) [Example 343]
19.4	1060	CN(C(=O)c1cc2c3c(c(N)nc2cn1)COC3)[C@H]1COc2cc(S(F)(F)(F)(F)F)ccc21 (single isomer, unassigned) [Example 344]
5.44	91	CN(C(=O)c1cc2c3c(c(N)nc2cn1)COC3)[C@@H]1COc2cc(Br)ccc21 (single isomer, unassigned) [Example 345]
37	6010	CN(C(=O)c1cc2c3c(c(N)nc2cn1)COC3)[C@H]1COc2cc(Br)ccc21 (single isomer, unassigned) [Example 346]
3.22	86	CN(C(=O)c1cc2c3c(c(N)nc2cc1F)COC3)[C@@H]1COc2cc(Cl)ccc21 (single isomer, unassigned) [Example 347]

IC50 (HCT116 WT cells) [µM]	IC50 (HCT116 MTAP null cells) [nM]	SMILES
23.4	1900	CN(C(=O)c1cc2c3c(c(N)nc2cc1F)COC3)[C@H]1COc2cc(Cl)ccc21 (single isomer, unassigned) [Example 348]
2.24	39	CN(C(=O)c1cc2c3c(c(N)nc2cc1F)COC3)[C@@H]1CCc2nc(C(F)(F)F)ccc21 (single isomer, unassigned) [Example 349]
50	3160	CN(C(=O)c1cc2c3c(c(N)nc2cc1F)COC3)[C@H]1CCc2nc(C(F)(F)F)ccc21 (single isomer, unassigned) [Example 350]
2.85	83	CN(C(=O)c1cc2c3c(c(N)nc2cc1F)COC3)[C@@H]1COc2nc(C(F)(F)F)ccc21 (single isomer, unassigned) [Example 351]
50	3250	CN(C(=O)c1cc2c3c(c(N)nc2cc1F)COC3)[C@H]1COc2nc(C(F)(F)F)ccc21 (single isomer, unassigned) [Example 352]
1.38	32	CN(C(=O)c1cc2c3c(c(N)nc2cc1F)COC3)[C@@H]1COc2cc(S(C)(=O)=O)ccc21 (single isomer, unassigned) [Example 353]
50	3870	CN(C(=O)c1cc2c3c(c(N)nc2cc1F)COC3)[C@H]1COc2cc(S(C)(=O)=O)ccc21 (single isomer, unassigned) [Example 354]
1.18	26	CN(C(=O)c1cc2c3c(c(N)nc2cc1F)COC3)[C@@H]1COc2cc(C(F)(F)F)cc(F)c21 (single isomer, unassigned) [Example 355]
11.3	1040	CN(C(=O)c1cc2c3c(c(N)nc2cc1F)COC3)[C@H]1COc2cc(C(F)(F)F)cc(F)c21 (single isomer, unassigned) [Example 356]
0.208	12	CN(C(=O)c1cc2c3c(c(N)nc2cc1F)COC3)[C@@H]1COc2cc(S(F)(F)(F)(F)F)ccc21 (single isomer, unassigned) [Example 357]
8.85	1200	CN(C(=O)c1cc2c3c(c(N)nc2cc1F)COC3)[C@H]1COc2cc(S(F)(F)(F)(F)F)ccc21 (single isomer, unassigned) [Example 358]
1.23	17	C[C@H]1OCc2c1c(N)nc1cc(F)c(C(=O)N(C)[C@@H]3CCc4nc(C(F)(F)F)ccc43)cc21 (single isomer, unassigned) [Example 359]
42.3	810	C[C@H]1OCc2c1c(N)nc1cc(F)c(C(=O)N(C)[C@H]3CCc4nc(C(F)(F)F)ccc43)cc21 (single isomer, unassigned) [Example 360]
1.34	29	CN(C(=O)c1cc2c3c(c(N)nc2cc1Cl)COC3)[C@@H]1COc2cc(C(F)(F)F)ncc21 (single isomer, unassigned) [Example 361]
35.6	744	CN(C(=O)c1cc2c3c(c(N)nc2cc1Cl)COC3)[C@H]1COc2cc(C(F)(F)F)ncc21 (single isomer, unassigned) [Example 362]
2.5	17	CN(C(=O)c1ccc2nc(N)c3cnn(C)c3c2c1)[C@@H]1CCc2nc(C(F)(F)F)ccc21 (single isomer, unassigned) [Example 363]
34.9	2860	CN(C(=O)c1ccc2nc(N)c3cnn(C)c3c2c1)[C@H]1CCc2nc(C(F)(F)F)ccc21 (single isomer, unassigned) [Example 364]
0.212	5	CCN(C(=O)c1ccc2nc(N)c3cnn(C)c3c2c1)[C@@H]1COc2cc(C(F)(F)F)ccc21 (single isomer, unassigned) [Example 365]
0.155	6	CN(C(=O)c1ccc2nc(N)c3cnn(C)c3c2c1)[C@@H]1COc2cc(S(F)(F)(F)(F)F)ccc21 (single isomer, unassigned) [Example 366]
5.27	485	CN(C(=O)c1ccc2nc(N)c3cnn(C)c3c2c1)[C@H]1COc2cc(S(F)(F)(F)(F)F)ccc21 (single isomer, unassigned) [Example 367]
2.53	37	CN(C(=O)c1ccc2nc(N)c3cnn(C)c3c2c1)[C@@H]1CCc2cc(Br)ccc21 (single isomer, unassigned) [Example 368]
4.13	519	CN(C(=O)c1ccc2nc(N)c3cnn(C)c3c2c1)[C@H]1CCc2cc(Br)ccc21 (single isomer, unassigned) [Example 369]
1.8	29	CN(C(=O)c1ccc2nc(N)c3cnn(C)c3c2c1)[C@@H]1CCc2nc(Br)ccc21 (single isomer, unassigned) [Example 370]
